Reference: ChEMBL document CHEMBL1201862, “PubChem BioAssay data set” (2004)
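In this assay, cells in 96-well plates receive the compound at five concentrations for 48 hours. Endpoints are linearly interpolated between the surrounding concentrations. Here, GI50 denotes the concentration required for 50% inhibition of growth.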 Activity calls are given as the source filed them. No stated cut-off is given here; in the data, active = GI50 up to about 1.1 µM and inactive = higher.

Key:
Assay in all cases: DTP human tumour cell line panel, 48 h
A498 = system: A498
EKVX = system: EKVX
SNB-19 = system: SNB-19
SN12C = system: SN12C
NCI-H522 = system: NCI-H522
HT-29 = system: HT-29
SF-539 = system: SF-539
HOP-92 = system: HOP-92
TK-10 = system: TK-10
HOP-62 = system: HOP-62
IGROV-1 = system: IGROV-1
K562 = system: K562
M14 = system: M14
COLO 205 = system: COLO 205
SK-MEL-28 = system: SK-MEL-28
Malme-3M = system: Malme-3M
OVCAR-5 = system: OVCAR-5

Measured: GI50

Cn1nc(-c2ccccc2)c(C(=O)/C=C/c2ccccc2)c(N2CCOCC2)c1=O
inactive: A498 15.4 µM | EKVX > 10 µM | SNB-19 > 10 µM | SN12C 21.4 µM | NCI-H522 12.9 µM | HT-29 17.7 µM | SF-539 15.9 µM | HOP-92 5.06 µM | TK-10 32.8 µM | HOP-62 37.2 µM | IGROV-1 23.4 µM | K562 17.9 µM | M14 20.9 µM | COLO 205 19.5 µM | SK-MEL-28 > 10 µM

CCN(CC)CCCC(C)NC(=O)c1ccc2c(c1)C(=O)c1ccccc1C2=O (centres undefined)
inactive: A498 20.6 µM | EKVX 21.3 µM | Malme-3M 12.9 µM | SNB-19 21.6 µM | SN12C 18.1 µM | NCI-H522 18.9 µM | HT-29 14 µM | SF-539 19.2 µM | HOP-92 24.4 µM | TK-10 24.2 µM | HOP-62 27.2 µM | OVCAR-5 18.9 µM | IGROV-1 24.9 µM | K562 18.3 µM | M14 18.1 µM | COLO 205 8.38 µM | SK-MEL-28 17.9 µM

CC(=O)Nc1ccc(C2CC(c3ccc([N+](=O)[O-])cc3)=Nc3ccccc3S2)cc1 (centres undefined)
inactive: A498 16.5 µM | EKVX 36.8 µM | Malme-3M 18.3 µM | SNB-19 22.7 µM | SN12C 16.6 µM | NCI-H522 > 10 µM | HT-29 15.4 µM | SF-539 17.7 µM | TK-10 23.9 µM | HOP-62 17.1 µM | OVCAR-5 22.2 µM | IGROV-1 25.8 µM | K562 4.73 µM | M14 13.5 µM | COLO 205 36.8 µM | SK-MEL-28 18.7 µM

Cc1ccccc1N1C(=O)/C(=C/c2ccc(N(CCC#N)CCC#N)cc2)N=C1c1cc([N+](=O)[O-])ccc1Cl
inactive: A498 > 100 µM | Malme-3M > 100 µM | SNB-19 > 100 µM | SN12C > 100 µM | NCI-H522 > 100 µM | HT-29 > 100 µM | SF-539 > 100 µM | HOP-62 25.6 µM | OVCAR-5 42.1 µM | IGROV-1 > 100 µM | K562 35.8 µM | M14 > 100 µM | COLO 205 18.8 µM | SK-MEL-28 > 100 µM

Cc1ccc2[nH]c(=O)c(C(C#N)c3ccccc3)nc2c1 (centres undefined)
inactive: A498 > 100 µM | EKVX 30.5 µM | Malme-3M 45.2 µM | SNB-19 27.4 µM | SN12C 49.5 µM | NCI-H522 32.7 µM | HT-29 32.8 µM | SF-539 46.7 µM | HOP-92 32.7 µM | TK-10 > 100 µM | HOP-62 > 100 µM | OVCAR-5 55.3 µM | IGROV-1 34.2 µM | K562 47.9 µM | M14 41.8 µM | COLO 205 27 µM | SK-MEL-28 60.4 µM

O=C1C2C3C=C4c5ccccc5N(c5ccccc5)C4(C2C(=O)N1c1ccc([N+](=O)[O-])cc1)[C@H]1C(=O)N(c2ccc([N+](=O)[O-])cc2)C(=O)[C@@H]31 (some centres undefined)
inactive: A498 > 100 µM | EKVX > 100 µM | Malme-3M > 100 µM | SNB-19 > 100 µM | SN12C > 100 µM | NCI-H522 > 100 µM | HT-29 > 100 µM | SF-539 > 100 µM | HOP-92 > 100 µM | TK-10 > 100 µM | HOP-62 > 100 µM | OVCAR-5 > 100 µM | IGROV-1 > 100 µM | K562 > 100 µM | M14 > 100 µM | COLO 205 > 100 µM | SK-MEL-28 > 100 µM

CCOC(=O)NC(=O)c1cn(CCN2CCN(C(=O)NCCCCCCNC(=O)N3CCN(CCn4cc(C(=O)NC(=O)OCC)c(=O)n(CCN(CC)CC)c4=O)CC3)CC2)c(=O)n(CCC(CC)CC)c1=O
inactive: A498 > 100 µM | EKVX > 100 µM | Malme-3M > 100 µM | SNB-19 > 100 µM | SN12C > 100 µM | NCI-H522 > 100 µM | HT-29 > 100 µM | SF-539 > 100 µM | HOP-92 > 100 µM | TK-10 > 100 µM | HOP-62 > 100 µM | OVCAR-5 > 100 µM | IGROV-1 > 100 µM | K562 > 100 µM | M14 > 100 µM | COLO 205 > 100 µM | SK-MEL-28 > 100 µM

CC(=O)c1cccc(NC(=O)C(=O)C(C2OC(=O)c3ccccc32)[N+](=O)[O-])c1 (centres undefined)
inactive: A498 > 100 µM | EKVX > 100 µM | Malme-3M > 100 µM | SNB-19 > 100 µM | SN12C > 100 µM | HT-29 > 100 µM | SF-539 > 100 µM | HOP-92 > 100 µM | TK-10 > 100 µM | HOP-62 > 100 µM | OVCAR-5 > 100 µM | IGROV-1 > 100 µM | K562 > 100 µM | M14 > 100 µM | COLO 205 > 100 µM | SK-MEL-28 > 100 µM

COC(=O)C1(C(=O)OC)CC2c3c(c4ccccc4n3C)CC(C1=O)N2Cc1ccccc1 (centres undefined)
inactive: A498 > 100 µM | EKVX > 100 µM | Malme-3M > 100 µM | SNB-19 > 100 µM | SN12C > 100 µM | NCI-H522 57.3 µM | HT-29 > 100 µM | SF-539 > 100 µM | HOP-92 > 100 µM | TK-10 > 100 µM | HOP-62 > 100 µM | OVCAR-5 > 100 µM | IGROV-1 > 100 µM | K562 > 100 µM | M14 > 100 µM | COLO 205 > 100 µM | SK-MEL-28 80 µM

O=C(CSc1nnc(-c2ccc(/N=C\c3ccc(Cl)cc3)cc2)o1)Nc1cccc(Cl)c1
inactive: EKVX > 100 µM | Malme-3M > 100 µM | SNB-19 > 100 µM | SN12C > 100 µM | NCI-H522 36.1 µM | HT-29 > 100 µM | TK-10 > 100 µM | HOP-62 > 100 µM | K562 > 100 µM | M14 > 100 µM | COLO 205 > 100 µM | SK-MEL-28 > 100 µM

OC1c2ccccc2C2C(O)c3ccccc3C12 (centres undefined)
inactive: EKVX > 100 µM | Malme-3M > 100 µM | SN12C > 100 µM | NCI-H522 > 100 µM | HT-29 > 100 µM | SF-539 > 100 µM | HOP-92 > 100 µM | TK-10 > 100 µM | HOP-62 > 100 µM | OVCAR-5 > 100 µM | IGROV-1 > 100 µM | K562 > 100 µM | M14 > 100 µM | COLO 205 > 100 µM | SK-MEL-28 > 100 µM

Cc1[nH]c2ccccc2c1C1Cc2ccccc2N1C(=O)/C=C/C(=O)O (centres undefined)
inactive: A498 > 100 µM | EKVX > 100 µM | Malme-3M > 100 µM | SNB-19 > 100 µM | SN12C > 100 µM | NCI-H522 > 100 µM | HT-29 > 100 µM | SF-539 > 100 µM | TK-10 > 100 µM | HOP-62 > 100 µM | OVCAR-5 > 100 µM | IGROV-1 > 100 µM | K562 > 100 µM | M14 > 100 µM | COLO 205 > 100 µM

O=[N+]([O-])c1cc(Cl)ccc1OCc1ccccc1
inactive: A498 > 100 µM | EKVX 27.2 µM | Malme-3M 99.3 µM | SN12C > 100 µM | HT-29 29.6 µM | SF-539 57.3 µM | HOP-92 34 µM | TK-10 > 100 µM | HOP-62 52 µM | IGROV-1 > 100 µM | K562 42.7 µM | M14 83.6 µM | COLO 205 > 100 µM | SK-MEL-28 > 100 µM

S=C(Nc1ccccc1)N(/N=C/C=C/c1ccccc1)c1nnc(-c2ccccc2)c(-c2ccccc2)n1
inactive: A498 67.5 µM | EKVX 45.4 µM | Malme-3M 57.7 µM | SNB-19 > 100 µM | SN12C > 100 µM | NCI-H522 27.2 µM | HT-29 99.1 µM | SF-539 35.7 µM | HOP-92 18.7 µM | TK-10 95.3 µM | HOP-62 78.2 µM | OVCAR-5 > 100 µM | IGROV-1 > 100 µM | K562 36.6 µM | M14 63.4 µM | COLO 205 > 100 µM | SK-MEL-28 54.6 µM

Cc1ccc(NC(=O)CC(=O)n2nc(C)c(/N=N/c3ccccc3C(=O)O)c2C)cc1
inactive: A498 > 100 µM | EKVX > 100 µM | Malme-3M > 100 µM | SNB-19 > 100 µM | SN12C > 100 µM | NCI-H522 > 100 µM | HT-29 > 100 µM | SF-539 > 100 µM | TK-10 > 100 µM | HOP-62 > 100 µM | OVCAR-5 > 100 µM | IGROV-1 > 100 µM | K562 > 100 µM | M14 > 100 µM | COLO 205 > 100 µM | SK-MEL-28 > 100 µM

O=C(O)C(=O)/C=C\c1ccc(Cl)cc1
inactive: A498 > 100 µM | EKVX > 100 µM | Malme-3M > 100 µM | SNB-19 > 100 µM | SN12C > 100 µM | NCI-H522 > 100 µM | HT-29 > 100 µM | SF-539 > 100 µM | HOP-92 80.9 µM | TK-10 > 100 µM | HOP-62 > 100 µM | OVCAR-5 > 100 µM | IGROV-1 > 100 µM | K562 > 100 µM | M14 > 100 µM | COLO 205 > 100 µM | SK-MEL-28 > 100 µM

CCC1(N=[N+]=[N-])C(=O)c2ccccc2N(c2ccccc2)C1=O (centres undefined)
inactive: A498 > 100 µM | EKVX > 100 µM | Malme-3M > 100 µM | SNB-19 > 100 µM | SN12C > 100 µM | NCI-H522 > 100 µM | HT-29 > 100 µM | SF-539 > 100 µM | HOP-92 > 100 µM | TK-10 > 100 µM | HOP-62 > 100 µM | OVCAR-5 > 100 µM | IGROV-1 > 100 µM | K562 > 100 µM | M14 > 100 µM | COLO 205 > 100 µM | SK-MEL-28 > 100 µM
